These are literature values, as cited in US10421941B2, “Process for improving the solubility of cell culture media” (Merck Patent GmbH, priority 2014, dated 2019).

For the series the following is noted: water / aqueous solvents.
Take `N[C@@H](CSSC[C@H](N)C(=O)O)C(=O)O` [cystine]: the “solubility (in words)” value is “poorly soluble”.

Take `CC[C@H](C)[C@H](N)C(=O)O` [isoleucine]: the “solubility (in words)” value is given as “moderate”.

For `CC(C)C[C@H](N)C(=O)O` [leucine], the “solubility (in words)” value is listed as “moderate”.

For the compound `CC(C)[C@H](N)C(=O)O` [valine], the “solubility (in words)” value was “moderate”.
